According to patent US12156861B2, “Pharmaceutical composition for treating kidney cancer and application thereof” (SICHUAN JIUZHANG BIOLOGICAL SCIENCE AND TECHNOLOGY CO., LTD., priority 2018, dated 2024):
Like-named read-outs stand apart in the source and are kept apart here.

Experiments:
[1] = system: human renal cancer cell lines A498; assay: WST-1 growth inhibition of human renal cancer cell line A498 in vitro; format: cell-based; details: for Observation of cell morphology / effect on cell growth: inverted microscope, compared with negative control; for inhibition at 15 µg/mL: final concentration 15 μg/ml; for inhibition at 60 µg/mL: final concentration 60 μg/ml; for OD value (average): WST-1, absorption at 440 nm
Description: (§1) Human kidney cancer cell line A498 and mouse kidney cancer cell line RuCa; the cells were passaged prior to use, and the cells that were in a good growth state and in log phase growth were selected for use.
(§2) Then, the cells were suspended in complete medium, and the cell concentration was adjusted to 6×10^4/ml. The cells were seeded in 96 well plates at 50 μl/well […], and three multiple wells were set up for each drug concentration.
(§3) On the next day after inoculation, once cells were adherent to the wall, the drugs were added according to the following groups and then incubated for 48 h.
The storage solution of each drug was prepared into 60 μg/ml with complete medium for use; the complete medium of each test drug mentioned above (50 μl) was placed in the 96-well plate inoculated cells, […], three wells for each concentration.
Then, 10 μl WST-1 solution was added into the wells of above drug groups, negative control group, and blank control group. […]
In order to objectively evaluate the synergistic effect of the combination of the three compounds, according to the standard proposed in the non patent literature Chou T C. Theoretical basis, experimental design, and computerized simulation of synergism and antagonism in drug combination studies. [J].
A, B and C denote the doses of three components in the pharmaceutical composition; Ae, Be, and Ce denote the dose of a single component required to achieve the tumor inhibition efficiency of the pharmaceutical composition when using a single compound alone. […] The smaller the CI value is, the stronger the synergistic effect is.

[2] = system: transplanted tumor RuCa in mice; assay: Inhibitory effect on transplanted tumor RuCa in mice; format: in vivo, mouse; details: for Tumor inhibition rate (%) / Body weight 15 d after administration / Tumor weight: 30 mg/kg ip once a day, 15 times; for Body weight 15 d after administration / Tumor weight / Body weight Before administration: x ± SD, n = 10; for Body weight Before administration: baseline
Text: Mouse renal cancer cell lines RuCa were established by subcutaneously inoculating in mouse axillary. The number of cells inoculated was 1×10^7, and after inoculation formed transplanted tumor, the cells were passaged in mice for 3 generations for use.
• 80 BABL/C-nu mice, half male and half female, weighing 18-22 g; 2 Experimental Method 2.1 Route of Administration
intraperitoneal injection (ip)
The tumor tissue in vigorous growth stage was cut into about 1.5 mm^3 and homogenized under aseptic conditions to prepare 1×10^7/ml cell suspension. 80 mice of the above specifications were inoculated subcutaneously in the right armpit with 0.1 ml cell suspension. On the second day after inoculation, the mice were weighed and randomly divided into 8 groups, with 10 mice in each group, that were test drug 1 group, test drug 2 group, test drug 3 group, test drug 4 group, test drug 5 group, test drug 6 group, test drug 7 group, and negative control group. The test drug group was administrated by intraperitoneal injection (ip), 30 mg/kg/time, once a day, and the administration was successively performed 15 times. The negative group was intraperitoneally injected with the same dose of normal saline, once a day, and the mice were weighed before administration.
At the end of administration, the experiment was stopped, and the mice were killed by cervical dislocation and weighed. The tumor was stripped, and the tumor inhibition rate was calculated.

[3] = system: mouse renal cancer cell lines RuCa; assay: WST-1 growth inhibition of mouse renal cancer cell line RuCa in vitro; format: cell-based; details: for Observation of cell morphology / effect on cell growth / inhibition at 30 µg/mL / OD value (average): 48 h; for Observation of cell morphology / effect on cell growth: inverted microscope, compared with negative control; for Inhibition rate (%): Comparative Example 1, method of Experimental Example 1; for inhibition at 30 µg/mL: Mus musculus, read-out: Inhibition rate (%); for inhibition at 30 µg/mL / OD value (average): final concentration 30 μg/ml; for OD value (average): WST-1, absorption at 440 nm
Description: as §1, §2, §3
The storage solution of each drug was prepared into 60 μg/ml with complete medium for use; the complete medium of each test drug mentioned above (50 μl) was placed in the 96-well plate inoculated cells, and the final concentration of each group was 30 μg/ml, three wells for each concentration.
Then, 10 μl WST-1 solution was added into the wells of above drug groups, negative control group, and blank control group. After the cells were incubated in 37° C. incubator for 4 h, the absorption values of different drug groups, negative control group and blank control group were measured at 440 nm by μ-Quant microplate analyzer.

[4] = Homo sapiens, A498, read-out: Inhibition rate (%)
[5] = Homo sapiens, A498, final concentration 30 μg/ml (Table 3), read-out: Inhibition rate (%)
[6] = Homo sapiens, A498, final concentration 30 μg/ml, 48 h, read-out: Inhibition rate (%)
[7] = final concentration 30 μg/ml, 48 h

## O=C(/C=C/c1ccc(O)c(O)c1)O[C@@H]1C[C@](O)(C(=O)O)C[C@@H](O)[C@H]1O [Chlorogenic acid, chlorogenic acid]
[1]; 48 h
  Observation of cell morphology / effect on cell growth: certain effect on cell growth
[1]; [4]
  inhibition at 15 µg/mL: 15.7%
  inhibition at 60 µg/mL: 61.3%
[1]; [5]
  inhibition at 30 µg/mL: 37.2%
[1]; [6]
  inhibition at 30 µg/mL: 36.5%
[1]; [7]
  OD value (average): 1.494
[2]
  Tumor inhibition rate (%): 33.33%
  Body weight 15 d after administration: 27.3 ± 1.19
  Tumor weight: 1.8 ± 0.14 g
  Body weight Before administration: 19.6 ± 0.98
[3]
  Observation of cell morphology / effect on cell growth: certain effect on cell growth
  Inhibition rate (%): 37.29%
  inhibition at 30 µg/mL: 38.5%
  OD value (average): 1.248

## O=C(/C=C/c1ccc(O)cc1)O[C@@H]1C[C@](O)(C(=O)O)C[C@@H](O)[C@H]1O [Coumaroylquinic acid, coumaroylquinic acid]
[1]; 48 h
  Observation of cell morphology / effect on cell growth: almost had no effect on cell growth
[1]; [4]
  inhibition at 15 µg/mL: 1.92%
  inhibition at 60 µg/mL: 7.13%
[1]; [5]
  inhibition at 30 µg/mL: 4.85%
[1]; [6]
  inhibition at 30 µg/mL: 3.13%
[1]; [7]
  OD value (average): 2.280
[2]
  Tumor inhibition rate (%): 7.41%
  Body weight 15 d after administration: 25.2 ± 1.42
  Tumor weight: 2.5 ± 0.19 g
  Body weight Before administration: 19.4 ± 1.17
[3]
  Observation of cell morphology / effect on cell growth: almost had no effect on cell growth
  inhibition at 30 µg/mL: 5.85%
  OD value (average): 1.909

## CNC(=O)c1cc(Oc2ccc(NC(=O)Nc3ccc(Cl)c(C(F)(F)F)c3)cc2)ccn1 [Sorafenib, sorafenib, reference compound]
[1]; Homo sapiens, A498, final concentration 0.1 μg/ml, read-out: Inhibition rate (%)
  inhibition at 0.1 µg/mL: 5.36%
[1]; Homo sapiens, A498, final concentration 0.5 μg/ml, read-out: Inhibition rate (%)
  inhibition at 0.5 µg/mL: 13.8%
[1]; Homo sapiens, A498, final concentration 1 μg/ml, read-out: Inhibition rate (%)
  inhibition at 1 µg/mL: 29.4%

## Cinnamoylquinic acid [reference compound]
[3]
  Inhibition rate (%): 13.94%

## Feruloylquinic acid [reference compound]
[3]
  Inhibition rate (%): 10.42%
